Source: ChEMBL document CHEMBL3351246, “Discovery of triazines as selective PDE4B versus PDE4D inhibitors” (Bioorg Med Chem Lett, 2014)

What was measured:
[1] = target: T1, 3',5'-cyclic-AMP phosphodiesterase 4B (Homo sapiens, UniProt Q07343); test: Inhibition of human PDE4B
Homo sapiens = species on record: Homo sapiens; test: Selectivity index, ratio of IC50 for human PDE4D to IC50 for human PDE4B
[2] = target: T2, 3',5'-cyclic-AMP phosphodiesterase 4D (Homo sapiens, UniProt Q08499); test: Inhibition of human PDE4D
[3] = target: T1, 3',5'-cyclic-AMP phosphodiesterase 4B; test: Inhibition of human PDE4B1
[4] = target: T2, 3',5'-cyclic-AMP phosphodiesterase 4D; test: Inhibition of human PDE4D7

T2 sequence (Q08499 whole entry): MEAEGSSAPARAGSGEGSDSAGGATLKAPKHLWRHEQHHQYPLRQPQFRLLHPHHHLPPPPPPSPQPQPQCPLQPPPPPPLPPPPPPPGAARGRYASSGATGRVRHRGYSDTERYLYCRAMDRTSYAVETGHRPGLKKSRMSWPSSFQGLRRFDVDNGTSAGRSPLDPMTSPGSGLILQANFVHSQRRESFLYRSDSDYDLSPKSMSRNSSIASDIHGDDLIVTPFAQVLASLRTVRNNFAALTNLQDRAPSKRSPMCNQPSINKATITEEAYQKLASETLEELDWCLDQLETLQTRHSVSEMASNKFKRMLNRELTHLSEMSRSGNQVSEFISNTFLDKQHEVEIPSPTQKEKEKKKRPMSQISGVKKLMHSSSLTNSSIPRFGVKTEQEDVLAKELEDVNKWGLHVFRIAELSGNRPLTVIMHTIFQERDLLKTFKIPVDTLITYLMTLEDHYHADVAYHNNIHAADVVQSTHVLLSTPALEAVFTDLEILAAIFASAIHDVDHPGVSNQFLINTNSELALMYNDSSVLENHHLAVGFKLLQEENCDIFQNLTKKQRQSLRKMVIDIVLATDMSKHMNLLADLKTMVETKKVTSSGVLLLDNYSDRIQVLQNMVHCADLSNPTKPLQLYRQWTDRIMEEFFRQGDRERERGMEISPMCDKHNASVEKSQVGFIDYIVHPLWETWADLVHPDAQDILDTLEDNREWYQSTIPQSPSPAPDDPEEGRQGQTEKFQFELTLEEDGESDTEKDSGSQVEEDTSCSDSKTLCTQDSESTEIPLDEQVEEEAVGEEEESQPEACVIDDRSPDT
T1 sequence (Q07343 whole entry): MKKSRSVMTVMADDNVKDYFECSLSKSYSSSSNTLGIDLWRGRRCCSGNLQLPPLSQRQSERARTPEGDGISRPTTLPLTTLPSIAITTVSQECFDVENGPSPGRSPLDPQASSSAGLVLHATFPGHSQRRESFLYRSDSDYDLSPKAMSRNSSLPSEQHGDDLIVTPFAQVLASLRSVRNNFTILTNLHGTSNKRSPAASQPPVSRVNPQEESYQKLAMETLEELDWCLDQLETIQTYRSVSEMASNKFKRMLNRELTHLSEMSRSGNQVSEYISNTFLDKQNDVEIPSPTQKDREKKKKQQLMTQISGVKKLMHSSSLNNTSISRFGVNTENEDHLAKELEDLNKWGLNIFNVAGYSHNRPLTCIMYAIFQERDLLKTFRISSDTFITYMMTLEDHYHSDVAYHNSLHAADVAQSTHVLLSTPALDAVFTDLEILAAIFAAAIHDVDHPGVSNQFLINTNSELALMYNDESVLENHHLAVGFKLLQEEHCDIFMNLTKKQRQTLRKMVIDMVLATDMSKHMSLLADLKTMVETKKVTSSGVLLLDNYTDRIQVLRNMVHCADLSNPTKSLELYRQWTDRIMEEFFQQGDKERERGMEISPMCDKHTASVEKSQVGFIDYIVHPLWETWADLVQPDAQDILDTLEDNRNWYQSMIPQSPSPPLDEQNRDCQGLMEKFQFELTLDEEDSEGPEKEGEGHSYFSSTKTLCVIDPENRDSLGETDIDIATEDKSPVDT

SMILES	IC50 ([1]; read-out: IC50) [nM]	Ratio IC50 (Homo sapiens)	IC50 ([2]; read-out: IC50) [nM]	IC50 [1]	IC50 [2]	IC50 [3] [µM]	IC50 [4] [nM]
CCc1nc(Nc2ccc(C(=O)O)cc2)nc(-c2cccc(Cl)c2)n1	241	0.9	213				
O=C(O)Cc1ccc(Nc2nc(-c3ccc(Cl)s3)nc(C3CC3)n2)cc1	251	5.9	1490				
CCc1nc(Nc2ccc(CC(=O)O)cc2)nc(-c2cccc(Cl)c2)n1	781	0.9	681				
CCc1nc(Nc2ccc(F)cc2)nc(-c2ccc(Cl)s2)n1	1390	0.15	207				
O=C(O)Cc1ccc(Nc2nc(-c3ccc(Cl)cc3)nc(C3CC3)n2)cc1	3770	1.5	5610				
O=C1NCCN1c1ccc(Nc2nc(-c3cccc(Cl)c3)nc(C3CC3)n2)cc1				Not Active	Not Active		
CC(C)c1nc(Nc2ccc(CC(=O)O)cc2)nc(-c2ccc(Cl)s2)n1	1940	1.8	3580				
O=C(O)Cc1ccc(CNc2nc(-c3cccc(Cl)c3)nc(C3CC3)n2)cc1	845	0.86	726				
CCc1nc(Nc2ccc(-c3nnn[nH]3)cc2)nc(-c2cccc(Cl)c2)n1		1					
CCCc1nc(Nc2ccc(CC(=O)O)cc2)nc(-c2ccc(Cl)s2)n1	2450						
CCOc1nc(Nc2ccc(OC)cc2)nc(OCC)n1						6.7	2300
CCc1nc(Nc2ccc(NS(N)(=O)=O)cc2)nc(-c2cccc(Cl)c2)n1	402	0.4	160				
CCc1nc(Nc2ccc(C(C)C(=O)O)cc2)nc(-c2cccc(Cl)c2)n1 (stereo not given)	1090	0.09	96				
CCc1nc(Nc2ccc(C(=O)O)cc2)nc(-c2ccc(Cl)s2)n1	261	1	251				
CCc1nc(Nc2ccc(CC#N)cc2)nc(-c2cccc(Cl)c2)n1	165	0.04	7				
CCc1nc(Nc2ccc(C#N)cc2)nc(-c2cccc(Cl)c2)n1	12	1.1	13				
O=C(O)Cc1ccc(Nc2nc(-c3cccc(Cl)c3)nc(C3CC3)n2)cc1	237	5	1180				
O=C(O)c1ccc(Nc2nc(-c3cccc(Cl)c3)nc(C3CC3)n2)cc1	46	0.4	20				

SMILES	IC50 ([1]; read-out: IC50) [nM]	Ratio IC50 (Homo sapiens)	IC50 ([2]; read-out: IC50) [nM]	IC50 [1]	IC50 [2]	IC50 [3] [µM]	IC50 [4] [nM]
CC(C)c1nc(Nc2ccc(C(=O)O)cc2)nc(-c2ccc(Cl)s2)n1	220	1	219				
CCc1nc(Nc2ccc(-c3nn[nH]n3)cc2)nc(-c2cccc(Cl)c2)n1	126		132				
Cc1nc(Nc2ccc(CC(=O)O)cc2)nc(-c2ccco2)n1	18800	1.2	22300				
O=C(O)c1ccc(Nc2nc(-c3ccc(Cl)cc3)nc(C3CC3)n2)cc1	135	2	268				
CCc1c(C)nc(-c2ccc(Cl)s2)nc1Nc1ccc(CC(=O)O)cc1						0.055	2000
CCc1nc(Nc2ccc(Cc3nnn[nH]3)cc2)nc(-c2cccc(Cl)c2)n1	69	0.9	63				
CC(C)c1nc(Nc2ccc(F)cc2)nc(-c2ccc(Cl)s2)n1	8820		886				
O=C(O)Cc1ccc(CNc2nc(-c3ccc(Cl)cc3)nc(C3CC3)n2)cc1	2280	0.38	859				
CCc1nc(Nc2ccc(CC(=O)O)cc2)nc(-c2ccoc2)n1	2780						
O=C1CCC(NC2=NC(C3CC3)NC(c3cccc(Cl)c3)=N2)CN1 (stereo not given)	135	2	268				
O=C(O)Cc1ccc(Oc2nc(-c3cccc(Cl)c3)nc(C3CC3)n2)cc1	1860	1.2	2270				
O=C(O)Cc1ccc(Nc2nc(-c3cccc(F)c3)nc(C3CC3)n2)cc1	1440	1.5	2110				
CCc1nc(Nc2ccc(C(C)(C)C(=O)O)cc2)nc(-c2cccc(Cl)c2)n1	1570	0.4	600				
CCc1nc(Nc2ccc(CC(=O)O)cc2)nc(-c2ccc(F)cc2)n1	1460	0.5	727				
Cc1nc(Nc2ccc(C(=O)O)cc2)nc(-c2ccc(Cl)s2)n1	4050						
CCc1nc(Nc2ccc(CC(=O)O)cc2)nc(-c2ccc(Cl)s2)n1	383	2.3	865				
Cc1nc(Nc2ccc(CC(=O)O)cc2)nc(-c2ccc(Cl)s2)n1	1290						
